From ChEMBL document CHEMBL1147362, “Cytotoxicity of Hymenocallis expansa alkaloids” (1993)
Values after ≈ are worked out from the molar mass of the structure shown.

Experiments:
Assay type in all cases: functional
[1] = system: Col2; experiment: Cytotoxicity against human Col2 cells after 3 days by sulforhodamine B assay; settings: Col2, 72 h, read-out: ED50 (the source's name)
[2] = system: A-431; experiment: Cytotoxicity against human A431 cells after 3 days by sulforhodamine B assay; settings: A-431, 72 h, read-out: ED50 (the source's name)
[3] = system: HT; experiment: Cytotoxicity against human HT cells after 3 days by sulforhodamine B assay; settings: 72 h, read-out: ED50 (the source's name)
[4] = system: ZR-75-1; experiment: Cytotoxicity against human ZR-75-1 cells after 3 days by sulforhodamine B assay; settings: ZR-75-1, 72 h, read-out: ED50 (the source's name)
[5] = system: Lu1; experiment: Cytotoxicity against human Lu1 cells after 3 days by sulforhodamine B assay; settings: Lu1, 72 h, read-out: ED50 (the source's name)
[6] = system: KB; experiment: Cytotoxicity against human KB cells after 3 days by sulforhodamine B assay; settings: 72 h, read-out: ED50 (the source's name)
[7] = system: P388; experiment: Cytotoxicity against mouse P388 cells after 3 days by sulforhodamine B assay; settings: P388, 72 h, read-out: ED50 (the source's name)
[8] = Cytotoxicity against human KBV1 cells after 3 days by sulforhodamine B assay; settings: KB-V1, 72 h, read-out: ED50 (the source's name)
[9] = Cytotoxicity against human BC1 cells after 3 days by sulforhodamine B assay; settings: BC1, 72 h, read-out: ED50 (the source's name)
[10] = system: SK-MEL-2; experiment: Cytotoxicity against human SK-MEL-2 cells after 3 days by sulforhodamine B assay; settings: SK-MEL-2, 72 h, read-out: ED50 (the source's name)
[11] = system: LNCaP; experiment: Cytotoxicity against human LNCAP cells after 3 days by sulforhodamine B assay; settings: 72 h, read-out: ED50 (the source's name)

Compound	EC50 [1] [µg/mL]	EC50 [2] [µg/mL]	EC50 [3] [µg/mL]	EC50 [4] [µg/mL]	EC50 [5] [µg/mL]	EC50 [6] [µg/mL]	EC50 [7] [µg/mL]	EC50 [8] [µg/mL]	EC50 [9] [µg/mL]	EC50 [10] [µg/mL]	EC50 [11] [µg/mL]
CN1CCC2=C[C@H](O)[C@H]3OC(=O)c4cc5c(cc4[C@H]3[C@@H]21)OCO5	7.8 (≈ 24.7 µM)	6.3 (≈ 20 µM)	4.7 (≈ 14.9 µM)	7.3 (≈ 23.2 µM)	5.2 (≈ 16.5 µM)	> 20	4 (≈ 12.7 µM)	> 20	> 20	> 20	1.8 (≈ 5.71 µM)
CO[C@@H]1C=C[C@@]23c4cc5c(cc4CO[C@]2(O)CN(C)[C@H]3C1)OCO5 [TAZETTINE]	5 (≈ 15.1 µM)	11.1 (≈ 33.5 µM)	11.8 (≈ 35.6 µM)	6.9 (≈ 20.8 µM)	11.1 (≈ 33.5 µM)	7.3 (≈ 22 µM)	1 (≈ 3.02 µM)	> 20	> 20	12.9 (≈ 38.9 µM)	5.9 (≈ 17.8 µM)
CO[C@@H]1C=C[C@@]23c4cc5c(cc4[C@H](O)N(C[C@@H]2O)[C@H]3C1)OCO5	6 (≈ 18.9 µM)	3 (≈ 9.45 µM)	1.6 (≈ 5.04 µM)	2.6 (≈ 8.19 µM)	2.1 (≈ 6.62 µM)	3.6 (≈ 11.3 µM)	0.4 (≈ 1.26 µM)	8.4 (≈ 26.5 µM)	> 20	1.9 (≈ 5.99 µM)	0.7 (≈ 2.21 µM)
